Data taken from the supplement of paper PMC13380429.

Assays:
[1] = tested on: A549-ACE2 infected with SARS-CoV-2; experiment: cell count relative to DMSO; higher = less toxic; details: 24 h
[2] = tested on: Caco-2; experiment: cell viability relative to DMSO; higher = less toxic; details: 72 h
[3] = tested on: Calu-3; experiment: as above; details: 72 h
[4] = tested on: HepG2; experiment: as above; details: 72 h
[5] = tested on: U2OS; experiment: as above; details: 72 h
[6] = tested on: Vero E6; experiment: as above; details: 72 h
[7] = tested on: A549-ACE2 infected with SARS-CoV-2; experiment: SARS-CoV-2 infection rate relative to DMSO; higher = more infection; details: 24 h
[8] = tested on: A549-ACE2; experiment: phospholipidosis EC50; higher = less potent phospholipidosis inducer
[9] = tested on: A549-ACE2; experiment: drug-induced phospholipidosis relative to tamoxifen; higher = more phospholipidosis
[10] = tested on: A549-ACE2 infected with SARS-CoV-2; experiment: morphology score (similarity to uninfected cells); higher = more like uninfected cells; details: 24 h
[11] = tested on: Caco-2; experiment: relative viability EC50 (midpoint between 100% and the lowest measured viability); higher = less toxic; details: 72 h
[12] = tested on: Calu-3; experiment: as above; details: 72 h
[13] = tested on: HepG2; experiment: as above; details: 72 h
[14] = tested on: U2OS; experiment: as above; details: 72 h
[15] = tested on: Vero E6; experiment: as above; details: 72 h
[16] = tested on: Caco-2; experiment: drug sensitivity score (DSS) for viability; higher = more toxic; extreme values may be limits of the assay; details: 72 h
[17] = tested on: Calu-3; experiment: as above; details: 72 h
[18] = tested on: HepG2; experiment: as above; details: 72 h
[19] = tested on: U2OS; experiment: as above; details: 72 h
[20] = tested on: Vero E6; experiment: as above; details: 72 h

Cc1cc(Nc2ncc(Cl)c(Nc3ccccc3S(=O)(=O)C(C)C)n2)c(OC(C)C)cc1C1CCNCC1 [ceritinib]
Details	SARS-CoV-2 infection rate [%]	cell count [%]	cell viability [%]	morphology score	phospholipidosis EC50 [µM]
[1], 0.1 µM	–	104	–	–	–
[1], 0.3 µM	–	100	–	–	–
[1], 1 µM	–	97	–	–	–
[1], 3 µM	–	90	–	–	–
[2], 1 nM	–	–	99.3	–	–
[2], 10 nM	–	–	88.1	–	–
[2], 100 nM	–	–	107	–	–
[2], 1000 nM	–	–	83.7	–	–
[2], 10000 nM	–	–	10.1	–	–
[3], 1 nM	–	–	102	–	–
[3], 10 nM	–	–	108	–	–
[3], 100 nM	–	–	102	–	–
[3], 1000 nM	–	–	87.5	–	–
[3], 10000 nM	–	–	0.5	–	–
[4], 1 nM	–	–	94.5	–	–
[4], 10 nM	–	–	91.3	–	–
[4], 100 nM	–	–	106	–	–
[4], 1000 nM	–	–	71.4	–	–
[4], 10000 nM	–	–	0.2	–	–
[5], 1 nM	–	–	97.7	–	–
[5], 10 nM	–	–	92.8	–	–
[5], 100 nM	–	–	97.3	–	–
[5], 1000 nM	–	–	86.2	–	–
[5], 10000 nM	–	–	5.7	–	–
[6], 1 nM	–	–	99.4	–	–
[6], 10 nM	–	–	101	–	–
[6], 100 nM	–	–	97.9	–	–
[6], 1000 nM	–	–	95.9	–	–
[6], 10000 nM	–	–	17	–	–
[7], 0.1 µM	110	–	–	–	–
[7], 0.3 µM	96	–	–	–	–
[7], 1 µM	65	–	–	–	–
[7], 3 µM	44	–	–	–	–
[8], 24 h	–	–	–	–	2.94
[8], 48 h	–	–	–	–	1.79
[10], 0.1 µM	–	–	–	0.01	–
[10], 0.3 µM	–	–	–	0.04	–
[10], 1 µM	–	–	–	0.56	–
[10], 3 µM	–	–	–	0.69	–

drug-induced phospholipidosis [%], [9]
Details	0.3 µM	0.833333 µM	3.33333 µM	6.66667 µM	10 µM	30 µM
24 h	9.71	10.9	62	78.4	87.3	66.3
48 h	12.5	7.38	84.3	87.6	93	69.7
72 h	11.3	5.24	83.1	–	–	–

Details	drug sensitivity score	relative viability EC50 [µM]
[11]	–	1.82
[12]	–	2.15
[13]	–	1.44
[14]	–	2.01
[15]	–	2.78
[16]	7.7	–
[17]	7.6	–
[18]	9.7	–
[19]	7.5	–
[20]	5.2	–

CN1CCC[C@@H]1CCO[C@](C)(c1ccccc1)c1ccc(Cl)cc1 [clemastine]
Details	SARS-CoV-2 infection rate [%]	cell count [%]	cell viability [%]	morphology score	phospholipidosis EC50 [µM]
[1], 0.3 µM	–	99	–	–	–
[1], 3 µM	–	120	–	–	–
[1], 10 µM	–	123	–	–	–
[1], 30 µM	–	104	–	–	–
[3], 1 nM	–	–	96.8	–	–
[3], 10 nM	–	–	101	–	–
[3], 100 nM	–	–	91.8	–	–
[3], 1000 nM	–	–	105	–	–
[3], 10000 nM	–	–	73.9	–	–
[4], 1 nM	–	–	108	–	–
[4], 10 nM	–	–	95.6	–	–
[4], 100 nM	–	–	104	–	–
[4], 1000 nM	–	–	96.5	–	–
[4], 10000 nM	–	–	78.5	–	–
[5], 1 nM	–	–	95.4	–	–
[5], 10 nM	–	–	101	–	–
[5], 100 nM	–	–	96.1	–	–
[5], 1000 nM	–	–	103	–	–
[5], 10000 nM	–	–	96.7	–	–
[6], 1 nM	–	–	102	–	–
[6], 10 nM	–	–	96.5	–	–
[6], 100 nM	–	–	96.8	–	–
[6], 1000 nM	–	–	95.6	–	–
[6], 10000 nM	–	–	96.3	–	–
[7], 0.3 µM	100	–	–	–	–
[7], 3 µM	43	–	–	–	–
[7], 10 µM	32	–	–	–	–
[7], 30 µM	21	–	–	–	–
[8], 24 h	–	–	–	–	3.92
[8], 48 h	–	–	–	–	4.81
[8], 72 h	–	–	–	–	4.96
[10], 0.3 µM	–	–	–	0.04	–
[10], 3 µM	–	–	–	0.8	–
[10], 10 µM	–	–	–	0.86	–
[10], 30 µM	–	–	–	0.52	–

drug-induced phospholipidosis [%], [9]
Details	0.3 µM	0.833333 µM	3.33333 µM	6.66667 µM	10 µM	30 µM
24 h	0.63	8.33	38.5	87.2	102	98.4
48 h	1.7	9.62	25.8	80.6	96.8	–
72 h	4.55	9.81	21.5	79.5	95.6	–

Details	drug sensitivity score	relative viability EC50 [µM]
[11]	–	> 10
[13]	–	> 10
[14]	–	> 10
[15]	–	> 10
[16]	0	–
[17]	0.8	–
[18]	1.2	–
[19]	0	–
[20]	0	–
